IC50 data for 30 compounds are collected here from patent US5710151A, “Method of treating urinary bladder dysfunctions” (priority 1996, dated 1998).

The structures appear in SMILES notation. Counter-ions that a name gives are not always drawn.

The target of the assay is muscarinic receptors. Briefly: inhibition of binding of 3H-oxotremorine-M to muscarinic receptors. Particulars: 3 nM 3H-oxotremorine-M, rat cerebral cortical membranes, pH 7.4, 15 min, 25° C.; read-out: Inhibition of ^3 H-Oxo. The method, then: The affinity of the compounds for the muscarinic receptors was determined using the non-selective agonist ligand, ^3 H-oxotremorine-M. Birdsdall N. J. M., Hulme E. C., and Burgen A. S. V. "The Character of Muscarinic Receptors in Different Regions of the Rat Brain", 207 Proc. Roy. Soc. 1 (London, Series B, 1980). Each compound was tested to determine the affinity of the compound for the muscarinic receptors using the following procedure.
For in vitro binding, male Sprague-Dawley (Harlan Sprague-Dawley, Indianapolis, Ind.) rats weighing from about 100 to about 150 grams each were sacrificed by decapitation. The brains were quickly removed and the cerebral cortex were dissected from the brain. The cerebral cortex tissue was homogenized in 10 volumes of 0.32M sucrose and […] at about 1000×g. The supernatant was centrifuged at about 12,000×g for about 10 minutes and the resulting pellet was resuspended in 20 mM tris-Cl, pH 7.4. The resuspended pellet was centrifuged again for about 10 minutes at about 50,000×g. The resulting homogenate was preincubated for about 10 minutes at about 25° C. and centrifuged again for about 10 minutes at about 50,000×g. The pellet was resuspended at 1 gram of pellet per 3 ml of buffer and frozen at about -80° C. until used.
The inhibition of binding of ^3 H-oxotremorine-M to muscarinic receptors was determined by mixing the compound of the Example, 3 nM ^3 H-oxotremorine-M (about 87 Ci/mmoles, New England Nuclear, Boston Mass.), and cerebral cortical membranes equivalent to about 10 mg wet weight, which is about 100 μg of cortical membrane protein, in about 1 ml total volume of […] tris-Cl buffer, pH 7.4, containing 1 mM MnCl2. The aforementioned homogenates mixture was incubated for about 15 minutes at about 25° C. and then the homogenates were filtered through glass filters (Whatman, GF/C) with vacuum. The filters were washed 3 times with about 2 ml of cold tris-Cl buffer, and placed in scintillation vials containing about 10 ml of scintillation fluid (Ready Protein+, Beckman, Fullerton, Calif.). Radioactivity trapped on the filters was determined by liquid scintillation spectrometry. Nonspecific binding was determined using 1 μM atropine. The concentration of compound required to inhibit specific binding 50% (IC50) was determined using standardized computer assisted calculations (DeLean, A. et al. Am. J. Physiol., 235, (1978)).
Take `CC(C)CCCSc1nsnc1[C@@H]1CN2CCC[C@@H]1C2` (relative stereo) [Compound 76, Exo-6-(3-isohexylthio-1,2,5-thiadiazol-4-yl)-1-azabicyclo[3.2.1]octane oxalate]: the IC50 was determined as 7.7 nM.
The figure for `CC(C)CCCSc1nsnc1[C@H]1CN2CCC[C@H]1C2` [Compound 157, (5R,6R)-6-(3-isohexylthio-1,2,5-thiadiazol-4-yl)-1-azabicyclo[3.2.1]octane (+) L-tartrate] is 10 nM.
Regarding `CCCCOc1nsnc1C1CN2CCC1CC2` (stereo not drawn) [Compound 46, 3-(3-Butoxy-1,2,5-thiadiazol-4-yl)-1-azabicyclo[2.2.2]octane oxalate], the IC50 amounted to 1.6 nM.
`CCCCSc1nsnc1C1CN2CCC1CC2` (stereo not drawn) [Compound 13, 3-(3-Butylthio-1,2,5-thiadiazol-4-yl)-1-azabicyclo[2.2.2]octane fumarate]: the IC50 was determined as 1.9 nM.
Under `FC(F)(F)CCCSc1nsnc1[C@H]1CN2CCC[C@H]1C2` [Compound 167, (5R,6R)-6-(3-(4,4,4-trifluorobutylthio)-1,2,5-thiadiazol-4-yl)-1-azabicyclo[3.2.1]octane oxalate] stands 0.76 nM; under `CCSc1nsnc1C1CN2CCC1CC2` (stereo not drawn) [Compound 52, 3-(3-Ethylthio-1,2,5-thiadiazol-4-yl)-1-azabicyclo[2.2.2]octane oxalate], 1.8 nM.
Under `CCCOc1nsnc1[C@@H]1CN2CCC[C@@H]1C2` (relative stereo) [Compound 119, Exo-6-(3-propoxy-1,2,5-thiadiazol-4-yl)-1-azabicyclo[3.2.1]octane oxalate] stands 0.9 nM.
In the case of `c1csc(CCCSc2nsnc2C2CN3CCC2CC3)c1` (stereo not drawn) [Compound 104, 3-(3-(3-(2-Thienyl)propylthio)-1,2,5-thiadiazol-4-yl)-1-azabicyclo[2.2.2]octane fumarate], the IC50 worked out at 2.6 nM.
As to `CCCCCOc1nsnc1[C@@H]1CN2CCC[C@@H]1C2` (relative stereo) [Compound 59, Exo-6-(3-pentyloxy-1,2,5-thiadiazol-4-yl)-1-azabicyclo[3.2.1]octane oxalate], the IC50 is 1 nM.
The figure for `CSc1nsnc1[C@@H]1CN2CCC[C@@H]1C2` (relative stereo) [Compound 74, Exo-6-(3-methylthio-1,2,5-thiadiazol-4-yl)-1-azabicyclo[3.2.1]octane oxalate] is 1.4 nM.
As for `CCCCSc1nsnc1C1CN2CCC1CC2` (single isomer, unassigned) [Compound 56, (+) 3-(3-Butylthio-1,2,5-thiadiazol-4-yl)-1-azabicyclo[2.2.2]octane (-)D-tartrate], the IC50 amounted to 0.4 nM.
In the case of `c1ccc(OCCSc2nsnc2C2CN3CCC2CC3)cc1` (stereo not drawn) [Compound 102, 3-(3-(2-Phenoxyethylthio)-1,2,5-thiadiazol-4-yl)-1-azabicyclo[2.2.2]octane fumarate], the IC50 was 4.5 nM.
For `CCCCCSc1nsnc1[C@@H]1CN2CCC[C@@H]1C2` (relative stereo) [Compound 31, Exo-6-(3-pentylthio-1,2,5-thiadiazol-4-yl)-1-azabicyclo[3.2.1]octane oxalate], the IC50 worked out at 1.8 nM.
`CCCCCCOc1nsnc1[C@@H]1CN2CCC[C@@H]1C2` (relative stereo) [Compound 122, Exo-6-(3-hexyloxy-1,2,5-thiadiazol-4-yl)-1-azabicyclo[3.2.1]octane oxalate]: the IC50 was determined as 2.1 nM.
The figure for `N#Cc1ccc(CSc2nsnc2[C@@H]2CN3CCC[C@@H]2C3)cc1` (relative stereo) [Compound 82, Exo-6-(3-(4-cyanobenzylthio)-1,2,5-thiadiazol-4-yl)-1-azabicyclo[3.2.1]octane oxalate] is 1.3 nM.
As for `CCOc1nsnc1[C@@H]1CN2CCC[C@@H]1C2` (relative stereo) [Compound 19, Exo-6-(3-ethoxy-1,2,5-thiadiazol-4-yl)-1-azabicyclo[3.2.1]octane oxalate], the IC50 was determined as 1.2 nM.
Take `CCCCCCSc1nsnc1[C@@H]1CN2CCC[C@@H]1C2` (relative stereo) [Compound 29, Exo-6-(3-hexylthio-1,2,5-thiadiazol-4-yl)-1-azabicyclo[3.2.1]octane oxalate]: the IC50 came to 1.2 nM.
Take `CCSc1nsnc1[C@@H]1CN2CCC[C@@H]1C2` (relative stereo) [Compound 32, Exo-6-(3-ethylthio-1,2,5-thiadiazol-4-yl)-1-azabicyclo[3.2.1]octane oxalate]: the IC50 was found to be 1.3 nM.
Consider `CSc1nsnc1C1CN2CCC1CC2` (stereo not drawn) [Compound 131, 3-(3-Methylthio-1,2,5-thiadiazol-4-yl)-1-azabicyclo[2.2.2]octane oxalate], for which the IC50 was 2.8 nM.
Consider `CCCSc1nsnc1[C@H]1CN2CCC[C@H]1C2` [Compound 113, (5R,6R)-6-(3-propylthio-1,2,5-thiadiazol-4-yl)-1-azabicyclo[3.2.1]octane (+) L-tartrate], for which the IC50 was 0.89 nM.
With `FC(F)(F)CCCSc1nsnc1[C@@H]1CN2CCC[C@@H]1C2` [Compound 130, (5S,6S)-6-(3-(4,4,4-trifluoro-1-butylthio)-1,2,5-thiadiazol-4-yl)-1-azabicyclo[3.2.1]octane oxalate], the IC50 was 1.8 nM.
Under `c1ccc(OCCSc2nsnc2[C@@H]2CN3CCC[C@@H]2C3)cc1` (relative stereo) [Compound 133, Exo-6-(3-(2-phenoxyethylthio)-1,2,5-thiadiazol-4-yl)-1-azabicyclo[3.2.1]octane oxalate] stands 1.3 nM; under `CCCCSc1nsnc1[C@@H]1CN2CCC[C@@H]1C2` (relative stereo) [Compound 30, Exo-6-(3-butylthio-1,2,5-thiadiazol-4-yl)-1-azabicyclo[3.2.1]octane oxalate], 0.4 nM; under `Cn1nnnc1SCCCCSc1nsnc1C1CN2CCC1CC2` (stereo not drawn) [Compound 106, 3-(3-(1-Methyltetrazol-5-ylthio)butylthio-1,2,5-thiadiazol-4-yl)-1-azabicylo[2.2.2]octane oxalate], 2.8 nM.
In the case of `CCCCSc1nsnc1[C@H]1CN2CCC[C@H]1C2` [Compound 112, (5R,6R)-6-(3-butylthio-1,2,5-thiadiazol-4-yl)-1-azabicyclo[3.2.1]octane (-) D-tartrate], the IC50 was 0.6 nM.
On to `CC(C)CCCSc1nsnc1[C@@H]1CN2CCC[C@@H]1C2` [Compound 158, (5S,6S)-6-(3-isohexylthio-1,2,5-thiadiazol-4-yl)-1-azabicyclo[3.2.1]octane oxalate], for which the IC50 was 10 nM.
For the compound `CCCSc1nsnc1[C@@H]1CN2CCC[C@@H]1C2` (relative stereo) [Compound 58, Exo-6-(3-propylthio-1,2,5-thiadiazol-4-yl)-1-azabicyclo[3.2.1]octane oxalate], the IC50 worked out at 0.8 nM.
On to `CCCSc1nsnc1C1CN2CCC1CC2` (stereo not drawn) [Compound 53, 3-(3-Propylthio-1,2,5-thiadiazol-4-yl)-1-azabicyclo[2.2.2]octane oxalate], for which the IC50 came to 0.9 nM.
In the case of `CCCCOc1nsnc1[C@@H]1CN2CCC[C@@H]1C2` (relative stereo) [Compound 120, Exo-6-(3-butoxy-1,2,5-thiadiazol-4-yl)-1-azabicyclo[3.2.1]octane oxalate], the IC50 is 0.9 nM.
For `CC(C)CCSc1nsnc1[C@@H]1CN2CCC[C@@H]1C2` (relative stereo) [Compound 77, Exo-6-(3-isopentylthio-1,2,5-thiadiazol-4-yl)-1-azabicyclo[3.2.1]octane], the IC50 turned out to be 2.7 nM.
